This note sets out measurements from ChEMBL document CHEMBL1201862, “PubChem BioAssay data set” (2004).

Structures are written as SMILES.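 48-hour exposure; five concentrations; linearly interpolated endpoints. At the GI50, growth is halved.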 Activity calls are given as the source filed them. Cut-off read from the data, not from the text of the source: active = GI50 up to about 1.1 µM and inactive = higher.

Some test systems named below: A549; SF-295; MDA-MB-435; SW-620; SF-268; T47D; OVCAR-5; COLO 205; MDA-MB-231; SK-MEL-28; MCF7; NCI-H522; NCI-H460; HOP-92; RXF 393; IGROV-1; 786-0; SK-OV-3; K562; EKVX.
Holding throughout (assay): NCI tumour cell line growth inhibition, 48 h

As to `CCN(CC)CCCC(C)Nc1c2ccc(Cl)cc2nc2ccc(OC)cc12` (stereo not given), the GI50 was 1.65 µM (inactive) with A549; 0.729 µM (active) in the experiment with SF-295; 1.47 µM (inactive) in the experiment with MDA-MB-435; 0.637 µM (active) in the experiment with SW-620; 2.24 µM (inactive) with SF-268; 2.31 µM (inactive) in the experiment on T47D. For the same compound, the GI50 with OVCAR-5 was 2 µM (inactive); with COLO 205 it was 1.24 µM (inactive); in the experiment on MDA-MB-231 it was 10.1 µM (inactive); with SK-MEL-28 it was 1.61 µM (inactive); in the experiment with MCF7, 2.08 µM (inactive); in the experiment on NCI-H522, 1.35 µM (inactive). Moreover, the GI50 was 0.673 µM (active) in the experiment on NCI-H460; 1.14 µM (inactive) in the experiment on HOP-92; 1.2 µM (inactive) with RXF 393; 1.76 µM (inactive) in the experiment on IGROV-1; 0.993 µM (active) in the experiment with 786-0; 4.84 µM (inactive) with SK-OV-3. For the same compound, the GI50 with K562 is 0.824 µM (active); with EKVX, 4.61 µM (inactive).
